≈ marks a conversion by molar mass, not a printed value.
What was measured:
Format in all cases: cell-based
E. coli AG100 = test: Broth microdilution MIC in CAMHB; settings: Escherichia coli; E. coli AG100 (wild-type parent); MHB; read-out: Minimum Inhibitory Concentration, E. coli AG100
In short: (§1)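 Hyper-permeable or efflux-deficient strains serve to probe outer-membrane penetration. Growth inhibition is scored visually after 16-20 h at 37° C in CAMHB, starting from 2-8×10^5 CFU/mL.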

A. baumannii ATCC 19606 = test: Broth microdilution MIC in CAMHB; settings: Acinetobacter baumannii, ATCC19606; MHB; read-out: Minimum Inhibitory Concentration, A. baumannii ATCC 19606
In short: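 Colonies from cation-adjusted Mueller Hinton agar are grown in broth (3-5 h, 37° C), adjusted by OD600, and added at 2-8×10^5 CFU/mL to 2-fold compound dilutions. After 16-20 h at 37° C, the lowest concentration without growth is taken as MIC.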

E. coli AG100A = test: Broth microdilution MIC in CAMHB; settings: Escherichia coli, read-out: Minimum Inhibitory Concentration, E. coli AG100A
In short: as §1

E. coli ATCC 25922 = test: Broth microdilution MIC in CAMHB; settings: Escherichia coli, ATCC25922; E. coli ATCC 25922; MHB; read-out: Minimum Inhibitory Concentration, E. coli 25922
In short: as §1

E. coli D22 = test: Broth microdilution MIC in CAMHB; settings: Escherichia coli; E. coli D22 (hyper-permeable); MHB; read-out: Minimum Inhibitory Concentration, E. coli D22
In short: as §1

[1] = tested on: N. gonorrhoeae ATCC 49226; test: Liquid broth MIC in Fastidious broth; settings: Neisseria gonorrhoeae, ATCC49226; N. gonorrhoeae strain ATCC 49226; Fastidious broth; read-out: Minimum Inhibitory Concentration, N. gonorrhoeae ATCC 49226
In short: (§2)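 Colonies were swabbed from chocolate agar after 24 h growth and standardised by optical density at 600 nm. Compounds were serially diluted twofold in Fastidious broth, and bacteria added to give 5×10^5 CFU/mL. After about 24 h at 36 °C in 5% CO2, the lowest concentration allowing under 10% growth was taken as MIC.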

N. gonorrhoeae WHO L = test: Liquid broth MIC in Fastidious broth; settings: Neisseria gonorrhoeae; N. gonorrhoeae strain WHO L; Fastidious broth; read-out: Minimum Inhibitory Concentration, N. gonorrhoeae WHO L
In short: as §2

N. gonorrhoeae WHO K = test: Liquid broth MIC in Fastidious broth; settings: Neisseria gonorrhoeae, read-out: Minimum Inhibitory Concentration, N. gonorrhoeae WHO K
In short: (§3)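 Broth microdilution against gonococcal strains expressing mosaic PBP2, starting inoculum 5×10^5 CFU/mL in Fastidious broth. Incubation runs ~24 h at 36 °C under 5% CO2, with MIC scored visually at <10% of full growth.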

N. gonorrhoeae FA1090 = test: Liquid broth MIC in Fastidious broth; settings: Neisseria gonorrhoeae; N. gonorrhoeae strain FA1090; Fastidious broth; read-out: Minimum Inhibitory Concentration, N. gonorrhoeae FA1090
In short: as §2

N. gonorrhoeae H041 = test: Liquid broth MIC in Fastidious broth; settings: Neisseria gonorrhoeae, H041, read-out: Minimum Inhibitory Concentration, N. gonorrhoeae H041
In short: as §3

N. gonorrhoeae WHO G = test: Liquid broth MIC in Fastidious broth; settings: Neisseria gonorrhoeae; N. gonorrhoeae strain WHO G; Fastidious broth; read-out: Minimum Inhibitory Concentration, N. gonorrhoeae WHO G
In short: as §2

| Structure (SMILES) | MIC (E. coli AG100) | MIC (A. baumannii ATCC 19606) | MIC (E. coli AG100A) | MIC (E. coli ATCC 25922) | MIC (E. coli D22) | MIC [1] | MIC (N. gonorrhoeae WHO L) | MIC (N. gonorrhoeae WHO K) | MIC (N. gonorrhoeae FA1090) | MIC (N. gonorrhoeae H041) | MIC (N. gonorrhoeae WHO G) |
| --- | --- | --- | --- | --- | --- | --- | --- | --- | --- | --- | --- |
| CCN1CCN(C(=O)NC(C(=O)N[C@H]2Cc3ccc(OCCN)c(C(=O)O)c3OB2O)c2ccccc2)C(=O)C1=O (stereo partly drawn) [Example 60, (3R)-7-(2-aminoethoxy)-3-(2-(4-ethyl-2,3-dioxopiperazine-1-carboxamido)-2-phenylacetamido)-2-hydroxy-3,4-dihydro-2H-benzo[e][1,2]oxaborinine-8-carboxylic acid] | > 128 µg/mL | > 128 µg/mL | 32 to 64 µg/mL (≈ 56.4 to 113 µM) | > 128 µg/mL | 32 to 64 µg/mL (≈ 56.4 to 113 µM) | > 64 µg/mL | > 64 µg/mL | > 64 µg/mL | 16 to 32 µg/mL (≈ 28.2 to 56.4 µM) | > 64 µg/mL | > 64 µg/mL |
| CCN1CCN(C(=O)NC(C(=O)N[C@H]2Cc3cccc(C(=O)O)c3OB2O)c2cccc(O)c2)C(=O)C1=O (stereo partly drawn) [Example 68, (3R)-3-(2-(4-ethyl-2,3-dioxopiperazine-1-carboxamido)-2-(3-hydroxyphenyl)acetamido)-2-hydroxy-3,4-dihydro-2H-benzo[e][1,2]oxaborinine-8-carboxylic acid] | 32 to 64 µg/mL (≈ 61 to 122 µM) | > 128 µg/mL | 2 to 4 µg/mL (≈ 3.81 to 7.63 µM) | 32 to 64 µg/mL (≈ 61 to 122 µM) | 2 to 4 µg/mL (≈ 3.81 to 7.63 µM) | 4 to 8 µg/mL (≈ 7.63 to 15.3 µM) | 16 to 32 µg/mL (≈ 30.5 to 61 µM) | 16 to 32 µg/mL (≈ 30.5 to 61 µM) | 0.25 to 0.5 µg/mL (≈ 0.477 to 0.954 µM) | 16 to 32 µg/mL (≈ 30.5 to 61 µM) | 4 to 8 µg/mL (≈ 7.63 to 15.3 µM) |
| CCN1CCN(C(=O)NC(C(=O)N[C@H]2Cc3cccc(C(=O)O)c3OB2O)c2ccc(O)cc2O)C(=O)C1=O (stereo partly drawn) [Example 69, (3R)-3-(2-(2,4-dihydroxyphenyl)-2-(4-ethyl-2,3-dioxopiperazine-1-carboxamido)acetamido)-2-hydroxy-3,4-dihydro-2H-benzo[e][1,2]oxaborinine-8-carboxylic acid] | 32 to 64 µg/mL (≈ 59.2 to 118 µM) | > 128 µg/mL | 2 to 4 µg/mL (≈ 3.7 to 7.4 µM) | 32 to 64 µg/mL (≈ 59.2 to 118 µM) | 2 to 4 µg/mL (≈ 3.7 to 7.4 µM) | 4 to 8 µg/mL (≈ 7.4 to 14.8 µM) | 16 to 32 µg/mL (≈ 29.6 to 59.2 µM) | > 64 µg/mL | 0.25 to 0.5 µg/mL (≈ 0.463 to 0.925 µM) | > 64 µg/mL | 4 to 8 µg/mL (≈ 7.4 to 14.8 µM) |
| CCN1CCN(C(=O)NC(C(=O)N[C@H]2Cc3cccc(C(=O)O)c3OB2O)c2ccc(O)cc2OC)C(=O)C1=O (stereo partly drawn) [Example 70, (3R)-3-(2-(4-ethyl-2,3-dioxopiperazine-1-carboxamido)-2-(4-hydroxy-2-methoxyphenyl)acetamido)-2-hydroxy-3,4-dihydro-2H-benzo[e][1,2]oxaborinine-8-carboxylic acid] | > 128 µg/mL | > 128 µg/mL | 2 to 4 µg/mL (≈ 3.61 to 7.22 µM) | > 128 µg/mL | 8 to 16 µg/mL (≈ 14.4 to 28.9 µM) | 16 to 32 µg/mL (≈ 28.9 to 57.7 µM) | > 64 µg/mL | > 64 µg/mL | 1 to 2 µg/mL (≈ 1.8 to 3.61 µM) | > 64 µg/mL | 16 to 32 µg/mL (≈ 28.9 to 57.7 µM) |
| CCN1CCN(C(=O)NC(C(=O)N[C@H]2Cc3cccc(C(=O)O)c3OB2O)c2cccc(N)c2)C(=O)C1=O (stereo partly drawn) [Example 72, (3R)-3-(2-(3-aminophenyl)-2-(4-ethyl-2,3-dioxopiperazine-1-carboxamido)acetamido)-2-hydroxy-3,4-dihydro-2H-benzo[e][1,2]oxaborinine-8-carboxylic acid] | 32 to 64 µg/mL (≈ 61.1 to 122 µM) | > 128 µg/mL | 2 to 4 µg/mL (≈ 3.82 to 7.64 µM) | 32 to 64 µg/mL (≈ 61.1 to 122 µM) | 2 to 4 µg/mL (≈ 3.82 to 7.64 µM) | 4 to 8 µg/mL (≈ 7.64 to 15.3 µM) | > 64 µg/mL | > 64 µg/mL | 0.25 to 0.5 µg/mL (≈ 0.478 to 0.955 µM) | > 64 µg/mL | 1 to 2 µg/mL (≈ 1.91 to 3.82 µM) |
| CCN1CCN(C(=O)NC(C(=O)N[C@H]2Cc3cccc(C(=O)O)c3OB2O)c2cccc(NC(=O)c3ccc(O)c(O)c3Cl)c2)C(=O)C1=O (stereo partly drawn) [Example 73, (3R)-3-(2-(3-(2-chloro-3,4-dihydroxybenzamido)phenyl)-2-(4-ethyl-2,3-dioxopiperazine-1-carboxamido)acetamido)-2-hydroxy-3,4-dihydro-2H-benzo[e][1,2]oxaborinine-8-carboxylic acid] | 2 to 4 µg/mL (≈ 2.88 to 5.76 µM) | 0.5 to 1 µg/mL (≈ 0.721 to 1.44 µM) | 2 to 4 µg/mL (≈ 2.88 to 5.76 µM) | 2 to 4 µg/mL (≈ 2.88 to 5.76 µM) | 2 to 4 µg/mL (≈ 2.88 to 5.76 µM) | > 64 µg/mL | > 64 µg/mL | > 64 µg/mL | 1 to 2 µg/mL (≈ 1.44 to 2.88 µM) | > 64 µg/mL | 16 to 32 µg/mL (≈ 23.1 to 46.1 µM) |
